According to patent publication US12071414B2, “Apelin receptor agonists and methods of use thereof” (Sanford Burnham Prebys Medical Discovery Institute, priority 2015, dated 2024):

target: T1, human apelin receptor (APJ, AGTRL-one, APLNR) (Homo sapiens, UniProt P35414); experiment: cell-based cAMP TR-FRET assay of apelin receptor activation; conditions: CHO cells expressing human APJ, forskolin-stimulated cAMP, 0.5 h incubation, 50% of control (apelin-13, 1 nM) response; read-out: Potency Category (EC50)
T1 construct: host or cells: Chinese hamster ovary cells, stably integrated receptor
T1 sequence (P35414 1-380): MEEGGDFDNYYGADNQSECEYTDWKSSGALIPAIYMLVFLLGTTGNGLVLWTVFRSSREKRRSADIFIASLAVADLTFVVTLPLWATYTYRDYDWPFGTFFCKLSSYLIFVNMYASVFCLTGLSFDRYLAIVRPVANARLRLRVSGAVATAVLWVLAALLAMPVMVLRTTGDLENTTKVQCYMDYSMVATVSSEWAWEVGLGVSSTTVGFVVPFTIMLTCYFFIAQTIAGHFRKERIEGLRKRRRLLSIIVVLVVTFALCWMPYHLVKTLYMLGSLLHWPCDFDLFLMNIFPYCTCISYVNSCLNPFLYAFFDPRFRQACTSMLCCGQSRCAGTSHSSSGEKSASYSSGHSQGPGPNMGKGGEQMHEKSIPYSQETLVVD
Method: The assays disclosed herein were performed using cell lines from DiscoveX, Inc. Biological activity was determined to the cell—based assay. This assay detects activation of the receptor by reporting on intracellular cyclic adenosine monophosphate (cAMP) level. Chinese hamster ovary cells engineered to express the stably integrated human apelin receptor (APJ, AGTRL—one, APLNR), pleaded into the wells of the microtiter plate. Cells were stimulated with […] to increase intracellular cyclic AMP. Immediately following, compounds were added to the range of final concentrations 0.0-100 μM, in DMSO (not to exceed a final DMSO concentration greater than 1% ν/ν), and allowed to incubate with the cells for 0.5 h. At the end of the incubation, cells were lysed to stop APJ signaling and cAMP was quantified using a commercially available competitive immunoassay kit that applies homogenous time—resolved florescence energy transfer (TR—FRET). The assay is based on the competition between a europium (Eu) chelate—labeled cAMP donor tracer and cellular cAMP for binding sites on a cAMP—specific monoclonal antibody labeled with an acceptor fluorophore. When antibodies are bound to the cAMP tracer light emissions at 320 nm stimulate the energy transfer from the donor to the acceptor, which in turn emits light at 665 nm. In the presence of competitive unlabeled cAMP (derived from the activity of the receptor or forskolin-stimulated production of cAMP), the labelled cAMP tracer is dissociated from the cAMP antibody, resulting in a loss of FRET signal. The amount of light emitted by the FRET is inversely proportional to the cAMP generated by the cell/receptor system. Potency and efficacy at APJ are reported in reference to the canonical APJ receptor agonist apelin—13 when tested at 1 nM. […] Compound efficacy (% response) is reported as a percentage of the maximal apein-13 response at 1 nM (control). Potencies were calculated by fitting a […] logistic curve to concentration response consisting of at least 10 discrete data points spanning effective range of the compounds in the cell-based assay that measures cAMP. […] Category B is 200-500 nM; Category C is 100-200 nM; Category D is 50-100 nM; and Category E is <50 nM.

Row | SMILES | EC50
1 | COc1cc2nc(NC(=O)C(Oc3ccc(C#N)cc3)c3ccccc3S(=O)(=O)Cc3ccccc3)sc2cc1OC (stereo not drawn) | < 0.05 µM
2 | COc1cc2nc(NC(=O)Cc3cccc(S(=O)(=O)C4CCCC4)c3)sc2cc1OC | > 0.5 µM
3 | COc1cc2nc(NC(=O)C(Oc3ccc(C#N)cc3)c3ccc(S(=O)(=O)c4ccc(C(F)(F)F)cc4)cc3)sc2cc1OC (stereo not drawn) | > 0.5 µM
4 | COc1cc2nc(NC(=O)Cc3cccc(S(=O)(=O)c4ccc(F)cc4)c3)sc2cc1OC | > 0.5 µM
5 | CCCCc1ccc(OC(C(=O)Nc2nc3cc(OC)c(OC)cc3s2)c2ccc(S(=O)(=O)CC)cc2)cc1 (stereo not drawn) | > 0.5 µM
6 | COc1cc2nc(NC(=O)C(Oc3ccc(C(=O)NCCO)cc3)c3ccc(C#N)cc3)sc2cc1OC (stereo not drawn) | 0.2 to 0.5 µM
7 | CCS(=O)(=O)c1ccc(C(Oc2ccc(C#N)cc2)C(=O)Nc2nc3cc(OC)ccc3s2)cc1 (stereo not drawn) | > 0.5 µM
8 | COc1cc2nc(NC(=O)C(Oc3ccc(C#N)cc3)c3ccc(C(=O)O)cc3)sc2cc1OC (stereo not drawn) | > 0.5 µM
9 | C#Cc1ccc(OC(C(=O)Nc2nc3cc(OC)c(OC)cc3s2)c2ccc(S(=O)(=O)CC)cc2)cc1 (stereo not drawn) | 0.1 to 0.2 µM
10 | COc1cc2nc(NC(=O)C(Oc3ccc(C#N)cc3)c3ccc(C(F)(F)F)cc3)sc2cc1OC (stereo not drawn) | > 0.5 µM
11 | COc1cc2nc(NC(=O)C(Oc3ccc(O)cc3)c3ccc(C#N)cc3)sc2cc1OC (stereo not drawn) | > 0.5 µM
12 | COc1cc2nc(NC(=O)C(Oc3ccc(C#N)cc3)c3ccc(C)cc3)sc2cc1OC (stereo not drawn) | 0.05 to 0.1 µM
13 | CCS(=O)(=O)c1ccc(C(Oc2ccc(C#N)cc2)C(=O)Nc2nc3ccc(OCCO)cc3s2)cc1 (stereo not drawn) | > 0.5 µM
14 | CCS(=O)(=O)c1ccc(C(C)C(=O)Nc2nc3cc(OC)c(OC)cc3s2)cc1 (stereo not drawn) | > 0.5 µM
15 | CCS(=O)(=O)c1ccc(C(Oc2ccc(C#N)cc2)C(=O)Nc2nc3cc(OCCN(C)C)c(OC)cc3s2)cc1 (stereo not drawn) | > 0.5 µM
16 | CCS(=O)(=O)c1ccc(C(Oc2ccc(C#N)cc2)C(=O)Nc2nc3ccc(OCCN4CCN(C)CC4)cc3s2)cc1 (stereo not drawn) | > 0.5 µM
17 | CCCCS(=O)(=O)c1ccccc1C(Oc1ccc(C#N)cc1)C(=O)Nc1nc2cc(OC)c(OC)cc2s1 (stereo not drawn) | 0.2 to 0.5 µM
18 | CCS(=O)(=O)c1ccc(C(Oc2ccc(C3CCCC3)cc2)C(=O)Nc2nc3cc(OC)c(OC)cc3s2)cc1 (stereo not drawn) | 0.2 to 0.5 µM
19 | COc1cc2nc(NC(=O)C(Oc3ccc(C(=O)NCCN4CCOCC4)cc3)c3ccc(C#N)cc3)sc2cc1OC (stereo not drawn) | 0.2 to 0.5 µM
20 | COCCOc1ccc(C(Oc2ccc(C#N)cc2)C(=O)Nc2nc3cc(OC)c(OC)cc3o2)cc1 (stereo not drawn) | < 0.05 µM
21 | CCS(=O)(=O)c1ccc(C(Cc2ccccc2)C(=O)Nc2nc3cc(OC)c(OC)cc3s2)cc1 (stereo not drawn) | > 0.5 µM
22 | CCS(=O)(=O)c1ccc(C(Oc2ccc(OC)cc2)C(=O)Nc2nc3ccc4c(c3s2)OCCO4)cc1 (stereo not drawn) | > 0.5 µM
23 | CCS(=O)(=O)c1ccc([C@H](Oc2ccc(C#N)cc2)C(=O)Nc2nc3cc(OC)c(OC)cc3s2)cc1 | 0.2 to 0.5 µM

Row | SMILES | EC50
24 | CCOc1ccc(C(Oc2ccc(C#N)cc2)C(=O)Nc2nc3cc(OC)c(OC)cc3s2)cc1 (stereo not drawn) | < 0.05 µM
25 | CCS(=O)(=O)c1ccc(C(Oc2ccc(C#N)cc2)C(=O)Nc2cc3cc(OC)c(OC)cc3[nH]2)cc1 (stereo not drawn) | > 0.5 µM
26 | CCS(=O)(=O)c1ccc(C(Oc2ccc(C#N)c(C)c2)C(=O)Nc2nc3cc(OC)c(OC)cc3s2)cc1 (stereo not drawn) | 0.05 to 0.1 µM
27 | COc1ccc(OC(C(=O)Nc2nc3cc(OC)c(OC)cc3s2)c2ccccc2S(=O)(=O)c2ccc(F)cc2)cc1 (stereo not drawn) | > 0.5 µM
28 | CCS(=O)(=O)c1ccc(C(Oc2ccc([N+](=O)[O-])cc2)C(=O)Nc2nc3cc(OC)c(OC)cc3s2)cc1 (stereo not drawn) | < 0.05 µM
29 | CCS(=O)(=O)c1ccc(C(Oc2ccc(C#N)cc2)C(=O)Nc2nc3ccc4c(c3s2)OCO4)cc1 (stereo not drawn) | > 0.5 µM
30 | COc1cc2nc(NC(=O)Cc3cccc(S(=O)(=O)CC4CC4)c3)sc2cc1OC | > 0.5 µM
31 | COc1cc2nc(NC(=O)C(Oc3ccc(C#N)cc3)c3ccc(C(=O)NCCN(C)C)cc3)sc2cc1OC (stereo not drawn) | 0.05 to 0.1 µM
32 | COc1cc2nc(NC(=O)C(Oc3ccc(-c4nnn[nH]4)cc3)c3ccc(C#N)cc3)sc2cc1OC (stereo not drawn) | > 0.5 µM
33 | COc1ccc(OC(C(=O)Nc2nc3cc(OC)c(OC)cc3s2)c2ccc(C#N)cc2)cc1 (stereo not drawn) | < 0.05 µM
34 | COC(=O)c1ccc(C(Oc2ccc(C#N)cc2)C(=O)Nc2nc3cc(OC)c(OC)cc3s2)cc1 (stereo not drawn) | 0.1 to 0.2 µM
35 | CCS(=O)(=O)c1ccc(CC(=O)Nc2nc3cc(OC)c(O)cc3[nH]2)cc1 | > 0.5 µM
36 | CCS(=O)(=O)c1ccc(C(OCCOC)C(=O)Nc2nc3cc(OC)c(OC)cc3s2)cc1 (stereo not drawn) | > 0.5 µM
37 | COCCNS(=O)(=O)c1ccc(C(Oc2ccc(C#N)cc2)C(=O)Nc2nc3cc(OC)c(OC)cc3s2)cc1 (stereo not drawn) | 0.2 to 0.5 µM
38 | COc1cc2nc(NC(=O)C(Oc3ccc(C#N)cc3)c3ccc(C(=O)NCCN4CCCCC4)cc3)oc2cc1OC (stereo not drawn) | > 0.5 µM
39 | CCS(=O)(=O)c1ccc(C(OCC2CCOCC2)C(=O)Nc2nc3cc(OC)c(OC)cc3s2)cc1 (stereo not drawn) | > 0.5 µM
40 | COc1cc2nc(NC(=O)C(Oc3ccc(C#N)cc3)c3ccc(C(=O)N4CCN(C)CC4)cc3)oc2cc1OC (stereo not drawn) | < 0.05 µM
41 | CCS(=O)(=O)c1ccc(C(Oc2ccc(C#N)cc2)C(=O)Nc2nc3c4c(ccc3s2)OCO4)cc1 (stereo not drawn) | > 0.5 µM
42 | COc1cc2nc(NC(=O)C(Oc3ccc(C#N)cc3)c3cccc(S(=O)(=O)Cc4ccccc4)c3)sc2cc1OC (stereo not drawn) | < 0.05 µM
43 | CCS(=O)(=O)c1ccc(CC(=O)Nc2nc3cc4c(cc3s2)OCO4)cc1 | > 0.5 µM
44 | CCS(=O)(=O)c1ccc(C(Oc2ccc(C#N)cc2)C(=O)Nc2nc3cc4c(cc3s2)OCCO4)cc1 (stereo not drawn) | > 0.5 µM
45 | COc1cc2nc(NC(=O)C(Oc3ccc(C#N)cc3)c3ccccc3S(=O)(=O)C(C)C)sc2cc1OC (stereo not drawn) | 0.1 to 0.2 µM
46 | CCS(=O)(=O)c1ccc(C(C(=O)Nc2nc3cc(OC)c(OC)cc3s2)N(C)C)cc1 (stereo not drawn) | > 0.5 µM

Row | SMILES | EC50
47 | CCS(=O)(=O)c1ccc(C(Oc2ccc(OC)cc2)C(=O)Nc2nc3cc(OC)c(OC)cc3s2)cc1 (stereo not drawn) | > 0.5 µM
48 | CCS(=O)(=O)c1ccc(C(Oc2ccccc2I)C(=O)Nc2nc3cc(OC)c(OC)cc3s2)cc1 (stereo not drawn) | 0.2 to 0.5 µM
49 | CCS(=O)(=O)c1cccc(C(Oc2ccc(C#N)cc2)C(=O)Nc2nc3cc(OC)c(OC)cc3s2)c1 (stereo not drawn) | 0.2 to 0.5 µM
50 | COc1cc2nc(NC(=O)C(Oc3ccccc3)c3ccc(C#N)cc3)sc2cc1OC (stereo not drawn) | > 0.5 µM
51 | COc1cc2nc(NC(=O)C(Oc3ccc(C#N)cc3)c3ccc(OCCN4CCCC4)cc3)sc2cc1OC (stereo not drawn) | 0.2 to 0.5 µM
52 | CCS(=O)(=O)c1ccc(C(Oc2ccc(C#N)cc2Cl)C(=O)Nc2nc3cc(OC)c(OC)cc3s2)cc1 (stereo not drawn) | < 0.05 µM
53 | COc1ccc(OC(C(=O)Nc2nc3cc(OC)c(OC)cc3s2)c2cccc(S(=O)(=O)c3ccc(F)cc3)c2)cc1 (stereo not drawn) | > 0.5 µM
54 | CCS(=O)(=O)c1ccc(C(Oc2ccc(C#N)cc2)C(=O)Nc2nc3cc(Cl)c(OC)cc3s2)cc1 (stereo not drawn) | 0.2 to 0.5 µM
55 | COCCS(=O)(=O)c1ccc(CC(=O)Nc2nc3cc(OC)c(OC)cc3s2)cc1 | > 0.5 µM
56 | CCS(=O)(=O)c1ccc(C(OC2CCCCC2)C(=O)Nc2nc3cc(OC)c(OC)cc3s2)cc1 (stereo not drawn) | > 0.5 µM
57 | CCS(=O)(=O)c1ccc(C(Oc2ccc(Cl)cc2)C(=O)Nc2nc3cc(OC)c(OC)cc3s2)cc1 (stereo not drawn) | 0.1 to 0.2 µM
58 | COc1cc2nc(NC(=O)C(Oc3ccc(C#N)cc3)c3ccc(C(=O)NCCN4CCCCC4)cc3)sc2cc1OC (stereo not drawn) | < 0.05 µM
59 | COc1cc2nc(NC(=O)C(Oc3ccc(C#N)cc3)c3ccc(S(=O)(=O)Cc4ccccc4)cc3)sc2cc1OC (stereo not drawn) | 0.2 to 0.5 µM
60 | COc1cc2nc(NC(=O)C(Oc3ccc(C(=O)O)cc3)c3ccc(C#N)cc3)sc2cc1OC (stereo not drawn) | > 0.5 µM
61 | COc1cc2nc(NC(=O)C(Oc3ccc(C#N)cc3)c3ccc(C(=O)NCCN4CCCC4)cc3)sc2cc1OC (stereo not drawn) | 0.2 to 0.5 µM
62 | CCS(=O)(=O)c1ccc(C(Oc2ccccc2)C(=O)Nc2nc3cc(OC)c(OC)cc3s2)cc1 (stereo not drawn) | > 0.5 µM
63 | CCS(=O)(=O)c1ccc(C(Oc2ccc(C#N)cc2)C(=O)Nc2nc3cc(OC(C)C)c(OC)cc3s2)cc1 (stereo not drawn) | 0.2 to 0.5 µM
64 | CCS(=O)(=O)c1ccc(C(OCC(C)C)C(=O)Nc2nc3cc(OC)c(OC)cc3s2)cc1 (stereo not drawn) | > 0.5 µM
65 | CCS(=O)(=O)c1ccc(CC(=O)Nc2nc3ccc(N4CCN(C)CC4)cc3s2)cc1 | > 0.5 µM
66 | CCS(=O)(=O)c1ccc(C(Oc2ccc(C#N)c(Cl)c2)C(=O)Nc2nc3cc(OC)c(OC)cc3s2)cc1 (stereo not drawn) | < 0.05 µM
67 | CCS(=O)(=O)c1ccc(C(Oc2ccc(C#N)cc2)C(=O)Nc2nc3cc4c(cc3s2)OCO4)cc1 (stereo not drawn) | > 0.5 µM
68 | COc1cc2nc(NC(=O)Cc3ccccc3C(=O)O)sc2cc1OC | > 0.5 µM
69 | COc1cc2nc(NC(=O)C(Oc3ccc(OCCN(C)C)cc3)c3ccc(C#N)cc3)sc2cc1OC (stereo not drawn) | 0.1 to 0.2 µM
